Reference: PubChem BioAssay AID2060607 (Molecular Pharmacology Branch, DTP, NCI, 2025)

Test system: 876862-298-R-J1-PDC complex spheroids, viability % test/control
Assay: Anticancer human tumor 876862-298-R-J1-PDC patient-derived endometrial carcinoma cell line growth inhibition [CLK]
Conditions: for IC50: curve of first compound; for viability, T/C: stronger effect = lower value
Text: A high-throughput screen of multi-cell type tumor spheroids was designed to identify active combinations of […] and targeted small molecules. Complex spheroids include a stromal component modeled by human endothelial cells (HUVEC) and fibroblasts modeled by human mesenchymal stem cells (MSCs). The concentration ranges selected for each drug and investigational agent were based upon clinically achievable concentrations if the clinical Cmax of the agent was known.
Compounds. The drugs and investigational agents: cirtuvivint (SM08502; NSC835563), CC-671 (NSC850746), vemurafenib (NSC761431), tapotoclax (NSC804041), sotorasib (NSC818433), adagrasib (NSC831453), MRTX-1133 (NSC836407), BAY2416964 (NSC825713), copanlisib (NSC816437), inavolisib (NSC800729), abemaciclib (NSC768073), osimertinib (NSC779217), entinostat (NSC756642), eltanexor (KPT-8602, NSC794443), venetoclax (NSC766270), ceralasertib (NSC777638), bortezomib (NSC756655), olaparib (NSC753686), talazoparib (NSC767125), alisertib (NSC759677), peposertib (NSC802822), gemcitabine (NSC613327), 5-fluorouracil (NSC19893), SN-38 (NSC673596), oxaliplatin (NSC266046), paclitaxel (NSC125973), and doxorubicin (NSC123127), were obtained from the National Cancer Institute (NCI) Developmental Therapeutics Program Chemical Repository. The FDA-approved anticancer drug set is available from the Developmental Therapeutics Program at https://dtp.cancer.gov/organization/dscb/obtaining/available plates.htm. […] The stock solutions were prepared in dimethyl sulfoxide (DMSO, Sigma-Aldrich, St. Louis, MO, cat. D2650), except for the platinum complexes which were prepared in saline (Quality Biological, Gaithersburg, MD, cat. 114-055-101), at 800-fold the tested concentration and stored at -70 degrees C prior to their use. All drugs and investigational agents were tested over a range starting from a high concentration at or near the clinical Cmax and decreasing in half-log increments. If the clinical Cmax for an agent had not been determined, the highest concentration tested was 10 microM.
Cell Culture. All cells were maintained in an incubator at 37 degrees C and 5% CO2 with 95% humidity. The PDC lines were cultured according to standard operating procedures established by the NCI PDMR. Briefly, all PDCs were thawed and cultured in Matrigel-coated flasks prepared with a working solution of 1X Ham's F-12 nutrient mix, without supplementation (Invitrogen, Waltham, MA, cat. 11765054), 100 U/mL penicillin-streptomycin (Invitrogen, cat. 15140122), and 2.5% Matrigel (Corning Inc., Corning, NY, cat. 354248) for the first three passages. The 947758-054-R-J2-PDC line was cultured in 6B/Colon 1A media, which includes advanced DMEM/F-12 (Thermo Fisher Scientific, cat. 12634028), 10 mM HEPES (Thermo Fisher Scientific, cat. 15630080), 1X GlutaMAX supplement (Thermo Fisher Scientific, cat. 35050061), 0.1 mg/mL primocin (InvivoGen, cat. ant-pm-2), 10% defined fetal bovine serum, heat inactivated (HyClone Laboratories Inc., cat. SH30070.03HI), 1.25 mM N-Acetyl-L-cysteine (Sigma-Aldrich, cat. A9165), 10 mM nicotinamide (Sigma-Aldrich, cat. N0636), 1X B-27 supplement (Thermo Fisher Scientific, cat. 17504044), 1X N-2 supplement (Thermo Fisher Scientific, cat. 17502048), and 10 microM Y-27632 dihydrochloride (Tocris Bioscience, cat. 1254). The 876862-298-R-J1-PDC was cultured in 6E media, which includes all 6B/Colon 1A media components plus 50% L-WRN conditioned media (ATCC, cat. CRL-3276), 50 ng/mL recombinant human EGF recombinant protein (hEGF; Thermo Fisher Scientific, cat. PHG0311), 10 ng/mL recombinant human fibroblast growth factor 10 (hGFG-10; PeproTech, cat. 100-26), 1 ng/mL recombinant human fibroblast growth factor 2 (hFGF-2; PeproTech, cat. 100-18B), and 1 µM prostaglandin E2 (PGE2; Tocris, cat. 2296). The 227483-062-R1-J1-PDC line was cultured in Panc media, containing all 6E components except hFGF-2, with the addition of 500 nM SB-431542 (Selleckchem, cat. S1067) and 10 nM gastrin (Tocris, cat. 3006). […]

[1] = second compound 0.0316 µM, first compound 0.0316 µM
[2] = second compound 0.0316 µM, first compound 0.1 µM
[3] = second compound 0.0316 µM, first compound 0.316 µM
[4] = second compound 0.0316 µM, first compound 1 µM
[5] = second compound 0.0316 µM, first compound 3.16 µM
[6] = second compound 0.0316 µM, first compound 10 µM
[7] = second compound 0.1 µM, first compound 0.0316 µM
[8] = second compound 0.1 µM, first compound 0.1 µM
[9] = second compound 0.1 µM, first compound 0.316 µM
[10] = second compound 0.1 µM, first compound 1 µM
[11] = second compound 0.1 µM, first compound 3.16 µM
[12] = second compound 0.1 µM, first compound 10 µM
[13] = second compound 0.316 µM, first compound 0.0316 µM
[14] = second compound 0.316 µM, first compound 0.1 µM
[15] = second compound 0.316 µM, first compound 0.316 µM
[16] = second compound 0.316 µM, first compound 1 µM
[17] = second compound 0.316 µM, first compound 3.16 µM
[18] = second compound 0.316 µM, first compound 10 µM
[19] = second compound 1 µM, first compound 0.0316 µM
[20] = second compound 1 µM, first compound 0.1 µM
[21] = second compound 1 µM, first compound 0.316 µM
[22] = second compound 1 µM, first compound 1 µM
[23] = second compound 1 µM, first compound 3.16 µM
[24] = second compound 1 µM, first compound 10 µM
[25] = second compound 3.16 µM, first compound 0.0316 µM
[26] = second compound 3.16 µM, first compound 0.1 µM
[27] = second compound 3.16 µM, first compound 0.316 µM
[28] = second compound 3.16 µM, first compound 1 µM
[29] = second compound 3.16 µM, first compound 3.16 µM
[30] = second compound 3.16 µM, first compound 10 µM
[31] = second compound 10 µM, first compound 0.0316 µM
[32] = second compound 10 µM, first compound 0.1 µM
[33] = second compound 10 µM, first compound 0.316 µM
[34] = second compound 10 µM, first compound 1 µM
[35] = second compound 10 µM, first compound 3.16 µM
[36] = second compound 10 µM, first compound 10 µM
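Also: spheroids exposed to drugs for 7 days before readout.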
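For viability, T/C in this document: 100% = DMSO vehicle control wells.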

CC(Nc1ccc2c(c1)OCCn1cc(N3C(=O)OCC3C(F)F)nc1-2)C(N)=O (stereo unspecified) + CN1CCN(c2cc(C(=O)Nc3cc4cc(-c5cnn(C)c5)ccc4cn3)ccn2)CC1
IC50 (second compound 0.0316 µM): 862 nM
IC50 (second compound 0.1 µM): < 31.6 nM
IC50 (second compound 0.316 µM): < 31.6 nM
IC50 (second compound 1 µM): < 31.6 nM
IC50 (second compound 3.16 µM): < 31.6 nM
IC50 (second compound 10 µM): < 31.6 nM
viability, T/C [1]: 88.6%
viability, T/C [2]: 79%
viability, T/C [3]: 56.9%
viability, T/C [4]: 50%
viability, T/C [5]: 38.6%
viability, T/C [6]: 28.6%
viability, T/C [7]: 43%
viability, T/C [8]: 41.3%
viability, T/C [9]: 32.6%
viability, T/C [10]: 25.1%
viability, T/C [11]: 21.5%
viability, T/C [12]: 15.5%
viability, T/C [13]: 3.15%
viability, T/C [14]: 3.14%
viability, T/C [15]: 3.55%
viability, T/C [16]: 2.62%
viability, T/C [17]: 2.92%
viability, T/C [18]: 3.77%
viability, T/C [19]: 0.54%
viability, T/C [20]: 0.79%
viability, T/C [21]: 1.03%
viability, T/C [22]: 0.19%
viability, T/C [23]: 0.18%
viability, T/C [24]: 1.05%
viability, T/C [25]: 0.69%
viability, T/C [26]: 2.49%
viability, T/C [27]: 1.55%
viability, T/C [28]: 2.4%
viability, T/C [29]: 2.04%
viability, T/C [30]: 0.86%
viability, T/C [31]: 1.76%
viability, T/C [32]: 0.59%
viability, T/C [33]: 1.6%
viability, T/C [34]: 0.79%
viability, T/C [35]: 0.45%
viability, T/C [36]: 1.26%

COc1cccc2c1C(=O)c1c(O)c3c(c(O)c1C2=O)CC(O)(C(=O)CO)CC3OC1CC(N)C(O)C(C)O1 (stereo unspecified) + CNC(=O)c1ccc(Nc2nc(OC3CCCC3)c3c(-c4ccc5nc(C)oc5c4)c[nH]c3n2)c(OC)c1
IC50 (second compound 0.0316 µM): < 31.6 nM
IC50 (second compound 0.1 µM): < 31.6 nM
IC50 (second compound 0.316 µM): < 31.6 nM
IC50 (second compound 1 µM): < 31.6 nM
IC50 (second compound 3.16 µM): < 31.6 nM
IC50 (second compound 10 µM): < 31.6 nM
viability, T/C [1]: 27.4%
viability, T/C [2]: 11.2%
viability, T/C [3]: 6.58%
viability, T/C [4]: 5.25%
viability, T/C [5]: 0.7%
viability, T/C [6]: 4.06%
viability, T/C [7]: 22.3%
viability, T/C [8]: 10.5%
viability, T/C [9]: 6.67%
viability, T/C [10]: 4.08%
viability, T/C [11]: 0.67%
viability, T/C [12]: 3.82%
viability, T/C [13]: 21.7%
viability, T/C [14]: 7.88%
viability, T/C [15]: 5.6%
viability, T/C [16]: 2.96%
viability, T/C [17]: 0.81%
viability, T/C [18]: 4.75%
viability, T/C [19]: 15.3%
viability, T/C [20]: 5.96%
viability, T/C [21]: 4.62%
viability, T/C [22]: 2.24%
viability, T/C [23]: 1.51%
viability, T/C [24]: 5.96%
viability, T/C [25]: 13%
viability, T/C [26]: 6.62%
viability, T/C [27]: 3.35%
viability, T/C [28]: 1.57%
viability, T/C [29]: 1.6%
viability, T/C [30]: 6.55%
viability, T/C [31]: 12.1%
viability, T/C [32]: 5.47%
viability, T/C [33]: 3.35%
viability, T/C [34]: 1.56%
viability, T/C [35]: 2.15%
viability, T/C [36]: 7.11%

CCc1c2c(nc3ccc(O)cc13)-c1cc3c(c(=O)n1C2)COC(=O)[C@]3(O)CC + CN1CCN(c2cc(C(=O)Nc3cc4cc(-c5cnn(C)c5)ccc4cn3)ccn2)CC1
IC50 (second compound 0.0316 µM): < 3.16 nM
IC50 (second compound 0.1 µM): < 3.16 nM
IC50 (second compound 0.316 µM): < 3.16 nM
IC50 (second compound 1 µM): < 3.16 nM
IC50 (second compound 3.16 µM): < 3.16 nM
IC50 (second compound 10 µM): < 3.16 nM
viability, T/C (second compound 0.0316 µM, first compound 0.00316 µM): 25.1%
viability, T/C (second compound 0.0316 µM, first compound 0.01 µM): 8.53%
viability, T/C [1]: 7.87%
viability, T/C [2]: 4.18%
viability, T/C [3]: 3.57%
viability, T/C [4]: 2.49%
viability, T/C (second compound 0.1 µM, first compound 0.00316 µM): 14.1%
viability, T/C (second compound 0.1 µM, first compound 0.01 µM): 7.89%
viability, T/C [7]: 5.72%
viability, T/C [8]: 4.71%
viability, T/C [9]: 3.63%
viability, T/C [10]: 2.79%
viability, T/C (second compound 0.316 µM, first compound 0.00316 µM): 1.72%
viability, T/C (second compound 0.316 µM, first compound 0.01 µM): 1.95%
viability, T/C [13]: 1.32%
viability, T/C [14]: 0.72%
viability, T/C [15]: 0.73%
viability, T/C [16]: 0.47%
viability, T/C (second compound 1 µM, first compound 0.00316 µM): 0.79%
viability, T/C (second compound 1 µM, first compound 0.01 µM): 0.82%
viability, T/C [19]: 1.38%
viability, T/C [20]: 1.51%
viability, T/C [21]: 0.71%
viability, T/C [22]: 0.54%
viability, T/C (second compound 3.16 µM, first compound 0.00316 µM): 0.79%
viability, T/C (second compound 3.16 µM, first compound 0.01 µM): 0.71%
viability, T/C [25]: 0.85%
viability, T/C [26]: 0.75%
viability, T/C [27]: 0.6%
viability, T/C [28]: 0.43%
viability, T/C (second compound 10 µM, first compound 0.00316 µM): 0.44%
viability, T/C (second compound 10 µM, first compound 0.01 µM): 0.53%
viability, T/C [31]: 0.53%
viability, T/C [32]: 0.4%
viability, T/C [33]: 0.55%
viability, T/C [34]: 0.49%
